In test [1] the test system is MC3T3 H1 osteoblasts. Description: Adhesion of MC3T3 H1 osteoblasts to PMMA moulded articles coated with acrylate RGD peptides. In kind it is cell-based, mouse. As to the method:
For the covalent coupling of these peptides to polymerized PMMA (polymethyl methacrylate) surfaces, appropriate shaped articles of differing porosity (diameter: 10 mm; height: 2 mm) were prepared from three different PMMA components.
Bone cement based on PMMA (Merck KGaA, Germany, Licence No. 5181.00.00) corresponding to the product description (40 g of powder+20 ml of liquid).
10 g of PMMA/PHEMA (polyhydroxyethyl methacrylate) granules, particle size 0.5-0.6 mm (Biomet) were mixed with 1.3 ml of an HEMA solution (68.6% HEMA, 29.4% TEGMA [triethylene glycol dimethacrylate], 2% tBPB, [tert-butyl peroxybenzoate]) and adhered by means of this to a porous support material.
10 g of PMMA granules (Plex Y7H, Rohm, Germany), particle fraction 0.7-2 mm were mixed with 1.5 ml of a methyl methacrylate (MMA) solution (68.6% MMA, 29.4% TEGMA, 2% tBPB) and adhered by this means to a porous support material.
For the covalent coupling of the acrylate peptides to the prepolymerized PMMA moulded articles, stock solutions of the acrylate peptides 1, 2, 3 and 4 were prepared in a final concentration of 100 μM in each case in DMSO/0.2% camphorquinone (w/v). Then, by dilution with isopropanol/0.2% camphorquinone (w/v), concentration series having final peptide concentrations of 0.1 nM, 1 nM, 10 nM, 100 nM, 1 μM and 10 μM in each case were prepared. The moulded articles were incubated in daylight and at room temperature for 2 hours and then stored at 4° C. in the dry state. Before use, the samples were washed with PBS, pH 7.4, to remove unbound peptides and stored at 4° C. in PBS, pH 7.4, overnight.
By addition of 250 μl/moulded article each of a 5% strength BSA solution in PBS, pH 7.4, and subsequent incubation for 2 hours at room temperature and washing once with PBS, pH 7.4, non-specific cell-binding sites were blocked.
Subsequently, the adhesion of osteoblasts of the MC3T3 H1 line, obtained from the calvaria of neonatal mice (Heermeier et al., 1995, Cells and Materials 5: 309-321) to the above-described peptide-coated surfaces was investigated.
The MC3T3 H1 osteoblasts were inoculated at an inoculation density of 48,000 cells/cm^2, as described above, in Costar 48-well plates, with PMMA moulded articles coated with RGD peptide and then incubated for 1 hour at 37° C., 95% atmospheric humidity and 5% CO2. Cells non-adhered during the experiment were then washed off twice with PBS, pH 7.4.
The quantification of the adhered cells was carried out indirectly via the activity determination of the cellular enzyme N-acetylhexosaminidase using an appropriate standard curve according to the method of Landegren (1984, J. Immunol. Methods, 67: 379-388).

In test [2] the test system is MC3T3 H1 osteoblasts. Kind of test: Adhesion of MC3T3 H1 osteoblasts to V4A stainless steel shaped articles coated with acrylate peptide 3. In kind it is cell-based, mouse. Conditions: for maximum adhesion rates: V4A stainless steel. The procedure: For testing the cell adhesion of osteoblasts to peptide-coated metal surfaces, V4A stainless steel shaped articles (7×7×1 mm^3) were provided with three different coating variants and in each case then coated in turn with RGD peptides. To do this, first the stainless steel shaped articles were incubated in an ultrasonic bath at 60° C. for 15 min for the purpose of cleaning, rinsed with demineralized water, incubated in acetone for 30 min, rinsed again with demineralized water and incubated at 60° C. for 24 hours for drying.
The stainless steel platelets were then coated by means of three variants:
The Kevloc® primer solution was thinly applied and incubated at room temperature for 3 min. Then the Kevloc® bond solution was likewise thinly applied and activated in a kiln at 180° C. for 20 min.
Since this coating variant directly makes available free acrylate radicals on the metal surface, it was then possible to directly covalently couple the acrylate peptide 3, types iiia, as was described in Example 3 for polymerized PMMA-bone cement.
The Siliseal® solution was thinly applied and dried at room temperature for 5 min. Then the Sililink solution was likewise thinly applied and activated in the kiln at 320° C. for 3 min.
To make available acrylate radicals on the coated metal surfaces, the pretreated stainless steel shaped articles were immersed in demineralized water heated to 75° C., adjusted to pH about 8.00 using NaOH. A 1% 3-methacryloxypropyltrimethoxysilane solution (Huls AG, Germany) was then metered in with strirring over a period of one hour until a pH of about 6.50 was achieved. The mixture was then stirred at 75° C. for one hour; the pH at this time was about 6.35.
The bonding of acrylate peptide 3, type iiia, was carried out as described in Example 3 for polymerized PMMA bone cement.
For this, the stainless steel shaped articles were immersed in demineralized water heated to 75° C., adjusted to pH about 8.00 using NaOH, and an AlCl3 solution was metered in with stirring over a period of two hours. Then a 5% sodium silicate solution was likewise metered in with stirring over two hours. In the following step, a 1% 3-methacryloxypropyltrimethoxysilane solution (Huls AG, Germany) was metered in with stirring in the course of one hour. The mixture was then stirred at 75° C. for one hour; the pH was at this time about 6.40.
After the stainless steel shaped articles had been coated with acrylate peptide 3, type iiia, by means of three different processes, the adhesion of osteoblasts of the line MC3T3 H1 was investigated. To do this, a procedure as described in Example 3 was used.

Test [3] relates to osteoblasts/platelets mixture. Description: Adhesion of an osteoblast/platelet mixture to PMMA bone cement shaped articles coated with cell-selective acrylate peptides. To be noted: second part experiment; 100 μM peptide in the coating solution. In kind it is cell-based, mouse, human. As to the method:
b. In the second part experiment, PMMA shaped articles were likewise coated with the acrylate peptides 3 and 5, but only in a concentration in the coating solution of 100 μM in each case. These RGD peptide-coated materials were then inoculated in parallel with osteoblasts, platelets or an osteoblast/platelet mixture and their cell adhesion was determined. MC3T3 H1 osteoblasts (350,000 cells/cm^2), human platelets (50 million cell/cm^2) and a cell mixture (350,000 osteoblasts/cm^2 […] 50 million platelets/cm^2) were in each case inoculated in parallel both onto acrylate peptide 3- and acrylate peptide 5-coated PMMA shaped articles and their cell adhesion was determined as described in Example 3.

“cyclo(RGDf[acrylic-ahx-tEG-K]) [acrylate peptide 3]”: the “stimulation of cell adhesion (in words)” value with MC3T3 H1 osteoblasts [1] (PMMA carriers, comparison of anchor lengths) was “higher activity”. The “cell adsorption rates increased in comparison with uncoated surfaces” value in the test on MC3T3 H1 osteoblasts [1] (bone cement shaped articles, FIG. 8) is listed as 5-15 fold; in the test on MC3T3 H1 osteoblasts [1] (porous PMMA/PHEMA granule shaped articles, FIG. 9) it was 2-5 fold; with MC3T3 H1 osteoblasts [1] (porous Plex Y7H granule shaped articles, FIG. 10) it was 2-3 fold. The maximal adsorption rates with MC3T3 H1 osteoblasts [1] (different PMMA moulded articles, 48,000 cells/cm^2, 1 hour) is 80-100%. The EC50 was in the range of 1 to 10000 nM with MC3T3 H1 osteoblasts [1] (different PMMA moulded articles, read-out: half-maximal cell bindings, RGD peptide concentration in the coating solution) and 1 to 100 nM with MC3T3 H1 osteoblasts [2] (all three coating variants, read-out: half-maximal cell bindings, RGD peptide concentration in the coating solution). The maximum adhesion rates result in the test on MC3T3 H1 osteoblasts [2] (Kevloc process) was “about 80%”; with MC3T3 H1 osteoblasts [2] (Silicoater process) it was “about 80%”; with MC3T3 H1 osteoblasts [2] (pigment coating), “about 60%”. Also, in test [3], the “cell adhesion, Abs, osteoblasts/platelets inoculated as a mixture” value is reported as “about 6.5 Abs”.
